Test results reported in PubChem BioAssay (NCI).
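Cells were grown in 96-well plates and exposed to each compound for 48 hours at five concentrations; endpoints were interpolated linearly between bracketing concentrations, or set to the highest concentration if not reached. The concentration for 50% growth inhibition is given as GI50. TGI: concentration producing complete growth inhibition.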

Key:
Test in all cases: growth of human tumour cells (NCI), 48 h
[1] = system: UACC-62 melanoma
[2] = system: SNB-75 CNS
[3] = system: SR leukemia
[4] = system: SK-MEL-5 melanoma
[5] = system: COLO 205 colon
[6] = system: LOX IMVI melanoma
[7] = system: SK-OV-3 ovarian
[8] = system: 786-0 renal
[9] = system: HCT-116 colon
[10] = system: KM12 colon

Row | SMILES | GI50 [1] [µM] | TGI [1] [µM] | GI50 [2] [µM] | TGI [2] [µM] | GI50 [3] [µM] | TGI [3] [µM] | GI50 [4] [µM] | TGI [4] [µM] | GI50 [5] [µM] | TGI [5] [µM] | GI50 [6] [µM] | TGI [6] [µM] | GI50 [7] [µM] | TGI [7] [µM] | GI50 [8] [µM] | TGI [8] [µM] | TGI [9] [µM] | TGI [10] [µM] | GI50 [10] [µM] | GI50 [9] [µM]
1 | C[C@@]12CC=C3c4nc(Nc5cccc(O)c5)sc4CC[C@]3(C)[C@H]1CC[C@]1(C)C(=O)CC[C@@H]21 | 2.08 | 5.25 | 3.19 | > 100 | 1.87 | > 100 | 5.7 | > 100 | 2.17 | 4.38 | 1.67 | 3.15 | 4.81 | 28 | 1.55 | 4.91 |  |  |  | 
2 | O=C1CCN2C(=O)CCN12 |  | > 100 |  |  |  | > 100 |  |  |  | > 100 |  |  |  | > 100 |  | > 100 | > 100 | > 100 |  | 
3 | O=C1C2C3C=C4c5ccccc5N(c5ccccc5)C4(C2C(=O)N1Cc1ccccc1)C1C(=O)N(Cc2ccccc2)C(=O)C31 (centres undefined) |  |  |  | > 100 |  | > 100 |  |  |  | > 100 |  | > 100 |  |  |  | > 100 | > 100 | > 100 |  | 
4 | Clc1nc(Cl)c(Cl)c(-c2ccccc2)n1 |  |  |  | 21.5 |  |  |  | 11.8 |  |  |  | 5.59 |  | 25.8 |  | 7.45 |  | 18 |  | 
5 | COc1cc(/C=C/c2cc(/C=C/c3ccc(O)c(OC)c3)n(C(=O)Nc3ccc(F)c(Cl)c3)n2)ccc1O | 0.452 | 1.99 |  |  | 0.0415 |  | 0.243 | 1.37 | 1.76 | 3.25 | 0.0792 | 1.85 | 0.324 | 1.43 | 0.52 | 1.71 |  | 1.15 | 0.31 | 
6 | Cc1cc(C(=O)Nc2ncc(Cc3cccc(C(F)(F)F)c3)s2)c2ccccc2n1 |  |  |  |  | 2.02 | > 100 | 1.03 | > 100 | 0.75 | > 100 |  |  | 4.24 | > 100 | 2.84 | > 100 | > 100 | > 100 | 0.498 | 1.29
7 | CCOc1ccccc1NC(=O)CC(C(=O)OC)C(=O)C(=O)OC (centres undefined) |  | > 100 |  |  |  | > 100 |  | > 100 |  | > 100 |  | > 100 |  | > 100 |  | > 100 | > 100 | > 100 |  | 
8 | CC(C)C(Nc1c2ccccc2nc2ccccc12)C(=O)O (centres undefined) |  | > 100 |  | > 100 |  | > 100 |  |  |  | > 100 |  | > 100 |  | > 100 |  | > 100 | > 100 | > 100 |  | 
9 | c1ccc(CNn2nnc3ccccc32)cc1 |  | > 100 |  | > 100 |  |  |  | > 100 |  | > 100 |  | > 100 |  | > 100 |  | > 100 |  | > 100 |  | 
10 | Nn1c(=O)n(Cc2ccccc2)n(-c2ccccc2)c1=O |  | > 100 |  | > 100 |  | > 100 |  | > 100 |  |  |  | > 100 |  | > 100 |  | > 100 | > 100 | > 100 |  | 
11 | CCOC(=O)C1=C(C)N(NC(=O)Nc2ccccc2)C(=O)C1=P(c1ccccc1)(c1ccccc1)c1ccccc1 |  | 89.9 |  | > 100 |  | 56.1 |  | > 100 |  | 56.4 |  | > 100 |  | > 100 |  | > 100 | > 100 |  |  | 
